# Measurements from patent publication US8685967B2, “Substituted triazolopyridines and analogs thereof” (Merck Sharp & Dohme Corp., priority 2009, dated 2014).
# Molecular target: T1, Human recombinant PDE10A1 (Homo sapiens, UniProt Q9Y233)
# T1 construct: purchased BPS Bioscience, Inc
# Assay: In Vitro PDE10 Assay (scintillation proximity assay, [3H]cAMP)
# Format: biochemical
# Conditions: PDE10A1 0.02 nM, 10 nM [3H]cAMP, 30 minutes at room temperature; Ki by Cheng and Prusoff
# Method: PDE10A1 activity was measured in white opaque 384-well Opti-Plates (Perkin Elmer Life Sciences) using a scintillation proximity assay (GE Healthcare). Human recombinant PDE10A1 was purchased from BPS Bioscience, Inc. The reaction mixture contained PDE10A1 (0.02 nM), 10 nM [^3H]cAMP ([5′,8-^3H]Adenosine 3′,5′-cyclic phosphate, ammonium salt], Amersham) and various concentrations of compound in 50 mM Tris-HCl, pH 7.5, 8.3 mM MgCl2, […] and 0.2% bovine serum albumen in a total volume of 30 μl. The assay was initiated with the addition of substrate and was allowed to proceed for 30 minutes at room temperature before being stopped by the addition of 300 μg yttrium SPA PDE beads. The reaction mixtures were thoroughly mixed, and the beads were allowed to settle for 30 minutes. The plates were then counted in a TopCount scintillation counter. Under these conditions, less than 30% of the substrate was hydrolyzed in the absence of compound. Ki values were determined as described by Cheng and Prusoff (1973).
# T1 sequence (Q9Y233 1-779 isoform Q9Y233-1): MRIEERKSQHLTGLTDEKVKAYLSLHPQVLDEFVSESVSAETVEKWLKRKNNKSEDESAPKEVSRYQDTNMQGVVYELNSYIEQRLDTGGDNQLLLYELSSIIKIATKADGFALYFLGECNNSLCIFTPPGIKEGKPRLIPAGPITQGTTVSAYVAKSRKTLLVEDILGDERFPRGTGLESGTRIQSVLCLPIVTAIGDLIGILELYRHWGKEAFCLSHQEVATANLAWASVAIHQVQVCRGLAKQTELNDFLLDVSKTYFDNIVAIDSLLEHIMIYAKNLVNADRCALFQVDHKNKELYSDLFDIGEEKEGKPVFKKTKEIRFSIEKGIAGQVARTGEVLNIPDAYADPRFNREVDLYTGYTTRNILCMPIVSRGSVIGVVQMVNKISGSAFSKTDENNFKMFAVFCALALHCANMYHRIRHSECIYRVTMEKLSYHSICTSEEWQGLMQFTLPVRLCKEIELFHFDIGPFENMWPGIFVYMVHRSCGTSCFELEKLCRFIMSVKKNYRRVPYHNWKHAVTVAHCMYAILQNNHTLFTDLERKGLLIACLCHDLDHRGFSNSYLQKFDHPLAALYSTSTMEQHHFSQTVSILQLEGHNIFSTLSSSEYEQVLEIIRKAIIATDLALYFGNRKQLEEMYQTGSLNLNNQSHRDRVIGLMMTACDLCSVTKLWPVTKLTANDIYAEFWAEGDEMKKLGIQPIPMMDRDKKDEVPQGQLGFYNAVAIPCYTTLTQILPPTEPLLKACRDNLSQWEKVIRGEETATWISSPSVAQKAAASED
row,Structure (SMILES),Ki
1,CC(C)(C)c1nnc2c(C(=O)NCCc3nc4ccc(F)cc4[nH]3)cccn12 [Example 1AA],< 50 nM
2,O=C(NCCc1nc2ccccc2[nH]1)c1cccn2c(C(F)(F)F)nnc12 [Example 1A],< 50 nM
3,O=C(NCCc1nc2cc(Cl)ccc2[nH]1)c1cccn2c(C3CCC3)nnc12 [Example 1BBB],< 50 nM
4,O=C(NCCc1nc2ccccc2[nH]1)c1cccn2c(C3CC3)nnc12 [Example 1BB],< 50 nM
5,O=C(NCCc1nc2cc(Cl)ccc2[nH]1)c1cccn2c(C(F)(F)F)nnc12 [Example 1B],< 50 nM
6,CC(C)c1nnc2c(C(=O)NCCc3nc4cc(Cl)c(F)cc4[nH]3)cccn12 [Example 1DDD],< 50 nM
7,CCc1nnc2c(C(=O)NCCc3nc4cc(Cl)ccc4[nH]3)cccn12 [Example 1DD],< 50 nM
8,COc1ccc2nc(CCNC(=O)c3cccn4c(C)nnc34)[nH]c2c1 [Example 1EE],< 10 nM
9,CC(C)(C)c1nnc2c(C(=O)NCCc3nc4ccccc4[nH]3)cc(Br)cn12 [Example 1E],< 50 nM
10,O=C(NCCc1nc2cc(Cl)ccc2[nH]1)c1cc(F)cn2c(C3CC3)nnc12 [Example 1FFF],< 50 nM
11,Cc1nnc2c(C(=O)NCCc3nc4cc(Cl)ccc4[nH]3)cccn12 [Example 1FF],< 50 nM
12,CC(C)c1nnc2c(C(=O)NCCc3nc4ccccc4[nH]3)cccn12 [Example 1GG],< 50 nM
13,O=C(NCCc1nc2cc(Cl)ccc2[nH]1)c1cc(Br)cn2c(C3CC3)nnc12 [Example 1HH],< 50 nM
14,O=C(NCCc1nc2ccc(F)cc2[nH]1)c1cc(Br)cn2c(C3CC3)nnc12 [Example 1II],< 50 nM
15,O=C(NCCc1nc2ccccc2[nH]1)c1cc(Br)cn2c(C3CC3)nnc12 [Example 1I],< 50 nM
16,O=C(NCCc1nc2cc(Cl)ccc2[nH]1)c1cccn2c(Br)nnc12 [Example 1LL],< 50 nM
17,CC(C)(C)c1nnc2c(C(=O)NCCc3nc4ccccc4[nH]3)cc(F)cn12 [Example 1MM],< 50 nM
18,CC(C)(C)c1nnc2c(C(=O)NCCc3nc4cc(Cl)ccc4s3)cc(Br)cn12 [Example 1M],< 10 nM
19,O=C(NCCc1nc2ccccc2[nH]1)c1cc(F)cn2c(C3CC3)nnc12 [Example 1NN],< 50 nM
20,CC(C)(C)c1nnc2c(C(=O)NCCc3nc4ccccc4s3)cc(Br)cn12 [Example 1N],< 10 nM

# Continued, values first:
row,Ki,Structure (SMILES)
1,< 10 nM,O=C(NCCCc1nc2ccccc2[nH]1)c1cccn2c(C3CC3)nnc12 [Example 1O]
2,< 10 nM,CC(C)(C)c1nnc2c(C(=O)NCCCc3nc4ccccc4[nH]3)cccn12 [Example 1P]
3,< 10 nM,CC(C)(C)c1nnc2c(C(=O)NCCCc3nc4ccccc4[nH]3)cc(Br)cn12 [Example 1Q]
4,< 50 nM,O=C(NCCc1nc2cc(Cl)ccc2[nH]1)c1cccn2c(C3CC3)nnc12 [Example 1R]
5,< 10 nM,COc1ccc2nc(CCNC(=O)c3cccn4c(C5CCC5)nnc34)[nH]c2c1 [Example 1SS]
6,< 50 nM,CC(C)c1nnc2c(C(=O)NCCc3nc4cc(Cl)ccc4[nH]3)cccn12 [Example 1S]
7,< 50 nM,O=C(NCCc1nc2ccc(F)cc2[nH]1)c1cccn2c(C3CC3)nnc12 [Example 1T]
8,< 50 nM,COc1ccc2nc(CCNC(=O)c3cccn4c(C5CC5)nnc34)[nH]c2c1 [Example 1UU]
9,< 10 nM,O=C(NCCc1nc2c(Cl)cc(C(F)(F)F)cc2[nH]1)c1cccn2c(C3CC3)nnc12 [Example 1VV]
10,< 50 nM,COc1ccc2nc(CCNC(=O)c3cccn4c(C(C)C)nnc34)[nH]c2c1 [Example 1XX]
11,< 50 nM,O=C(NCCc1nc2cc(Cl)c(F)cc2[nH]1)c1cccn2c(C3CC3)nnc12 [Example 1ZZ]
12,< 10 nM,CC(C)(C)c1nnc2c(C(=O)NCCc3nc4cc(Cl)ccc4[nH]3)cccn12 [Example 1Z]
13,< 10 nM,Cc1nc2c(C(=O)NCCc3nc4cc(Cl)ccc4[nH]3)cccn2n1 [Example 2B]
14,< 50 nM,O=C(NCCc1nc2ccc(F)cc2[nH]1)c1cc(Br)cn2nc(C3CC3)nc12 [Example 2D]
15,< 10 nM,O=C(NCCc1nc2ccccc2[nH]1)c1cc(Br)cn2nc(C3CC3)nc12 [Example 2F]
16,< 50 nM,O=C(NCCc1nc2cc(Cl)ccc2[nH]1)c1cccn2nc(Br)nc12 [Example 2G]
17,< 50 nM,CC(C)(C)c1nnc2c(C(=O)NCCc3nc4ccccc4[nH]3)cc(-c3ccncc3)cn12 [Example 4A]
18,< 10 nM,CC(C)(C)c1nnc2c(C(=O)NCCCc3nc4ccccc4[nH]3)cc(-c3cccc(O)c3)cn12 [Example 4D]
19,< 50 nM,CC(C)(C)c1nnc2c(C(=O)NCCCc3nc4ccccc4[nH]3)cc(-c3ccncc3)cn12 [Example 4E]
20,< 50 nM,CC(C)(C)c1nnc2c(C(=O)NCCCc3nc4ccccc4[nH]3)cc(-c3cccnc3)cn12 [Example 4F]
21,< 50 nM,CC(C)(C)c1nnc2c(C(=O)NCCCc3nc4ccccc4[nH]3)cc(C#CCO)cn12 [Example 5B]
22,< 50 nM,Cn1c(CCNC(=O)c2cccn3c(C4CC4)nnc23)nc2cc(Cl)ccc21 [Example 7A]
23,< 50 nM,Cn1c(CCNC(=O)c2cccn3c(C4CC4)nnc23)nc2ccccc21 [Example 7D]
24,< 50 nM,Cn1c(CCNC(=O)c2cccn3c(C(C)(C)C)nnc23)nc2cc(Cl)ccc21 [Example 7E]
25,< 50 nM,Cc1nnc2c(C(=O)NCCc3nc4cc(Cl)ccc4n3C)cccn12 [Example 7K]
26,< 10 nM,CCn1c(CCNC(=O)c2cccn3c(C(C)C)nnc23)nc2ccccc21 [Example 7O]
27,< 50 nM,Cn1c(CCCNc2cccc3ccn4c(C(C)(C)C)nnc4c23)nc2ccccc21 [Example 8B]
28,< 50 nM,Cn1c(CCCNc2cccc3ccn4c(C(F)(F)F)nnc4c23)nc2ccccc21 [Example 8C]
29,< 50 nM,Cn1c(CCNc2cccc3ccn4c(C(F)(F)F)nnc4c23)nc2ccccc21 [Example 8]
